Experiments:
[1] = Absorption characteristics (water uptake / hygroscopic behaviour as a function of relative humidity); assay type: physicochemical; settings: for hygroscopic characteristics / behaviour: absorption characteristics, FIG. 7 / FIG. 10; for change into a hydrate phase: with rising relative humidity (free base: above 50% r.h.)
[2] = Humidity-dependent X-ray powder images (phase change); assay type: physicochemical
Procedure: The X-ray powder diagrams, with one exception, were recorded using an STOE Stadi P X-ray powder diffractometer. This diffractometer operates with CuKα1 radiation (gamma=1.5406 Angstroms) and a location-sensitive detector. The X-ray generator was operated at 40 mA and 40 kV.
The X-ray powder diagram of the monohydrate of the free base was recorded with a Bruker D8 Advance X-ray powder diffractometer on which a special air humidity cell made by MRI had been placed. The diagram was recorded at about 72% r.h. The Bruker D8 Advance operates with CuKα radiation (gamma=1.5418 Angstroms) and also a location-sensitive detector. The X-ray generator was operated at 30 mA and 40 kV.

relative humidity at which water is absorbed ([1]; FIG. 7) [% r.h.]	hygroscopic characteristics / behaviour [1]	phase change ([2]; above 80% r.h.)	phase change ([2]; humidity range from 10-90 r.h.)	water taken up ([1]; above 50% r.h., FIG. 4)	relative humidity up to which the anhydrous form is stable ([1]; anhydrous form, FIG. 4)	reversibility of the conversion into the monohydrate ([1]; relative humidity brought back to 50% or less)	Structure (SMILES)	change into a hydrate phase [1]	water uptake over relative humidity ([1]; whole range of relative humidities, FIG. 10)
> 80	less marked hygroscopic characteristics	no phase change	–	–	–	–	CC#CCn1c(N2CCC[C@@H](N)C2)nc2c1c(=O)n(Cc1ncccc1C#N)c(=O)n2C.Cl [Example 3, 1-[(3-cyano-pyridin-2-yl)methyl]-3-methyl-7-(2-butyn-1-yl)-8-[(R)-3-amino-piperidin-1-yl]-xanthine monohydrochloride]	no reversible change into a hydrate phase	–
–	unremarkable hygroscopic behaviour	–	no phase change	–	–	–	CC#CCn1c(N2CCC[C@@H](N)C2)nc2c1c(=O)n(Cc1ncccc1C#N)c(=O)n2C.Cl.Cl [Example 4, 1-[(3-cyano-pyridin-2-yl)methyl]-3-methyl-7-(2-butyn-1-yl)-8-[(R)-3-amino-piperidin-1-yl]-xanthine-dihydrochloride]	no reversible change into a hydrate phase	takes up a certain amount of water continuously over the whole range of relative humidities
–	–	–	–	about 4%	up to 50%	totally reversible	CC#CCn1c(N2CCC[C@@H](N)C2)nc2c1c(=O)n(Cc1ncccc1C#N)c(=O)n2C [Example 2, 1-[(3-cyano-pyridin-2-yl)methyl]-3-methyl-7-(2-butyn-1-yl)-8-(3-(R)-amino-piperidin-1-yl)-xanthine]	changes into a monohydrate	–
